Assay results as given in patent publication US11833131B2, “Compositions and methods for treating inflammatory diseases” (priority 2017, dated 2023).

What was measured:
Format in all cases: cell-based, human
CaCO2 cells = assay: Cell viability, Alamar Blue (Resazurin assay), CaCO2; details: CBD 16-252 μg/mL
Method: (§1) Resazurin (R&D Systems) was used to check the cytotoxic effect of extracts. For this, 10% Resazurin was added to each well of the treatments with different dilution. Then the plate was incubated for 2-4 hours at 37° C. in a humidified 5% CO2-95% air atmosphere. Supernatant (100 μL from each well) was transferred to a 96-well plate and the relative fluorescence at the excitation/emission of 544/590 nm was measured. The number of live cells was calculated with a linear standard concentrate curve built by seeding different concentrations of cells in 24-well plates treated with Resazurin. Values were calculated as percentage of live cells relative to the non-treated (cells without TNF-α and treatments) control after reducing auto-fluorescence of Alamar Blue without cells.

[1] = test system: IL-8 levels in CaCO2 cells; assay: IL-8 ELISA in TNF-α-treated CaCO2 cells; details: CaCO2, 300 ng/mL TNF-α, 4 hours
Method: (§2) HCT116 (ATCC CCL-247), HT29 (ATCC HTB-38) and CaCO2 (ATCC HTB-37) colon cells were grown at 37° C. in a humidified 5% CO2-95% air atmosphere. Cells were maintained in McCoy's 5a Modified Medium (HCT116 and HT29) and Dulbecco's modified Eagle's medium (DMEM) supplemented with 10% fetal bovine serum (CaCO2).
(§3) Cells were seeded, in triplicate, into a 24-well plate at a concentration of 50,000 cells per well in 500 μL, of growing media, and then incubated for 24 hours at 37° C. in a humidified 5% CO2-95% air atmosphere. When cell excitation was performed with TNF-α, cultures in each well were treated with 50-300 ng/mL recombinant human TNF-α (PeproTech, Rocky Hill, N.J., USA) and 50 μL plant extract, as described above (dilution index 57 or 280). The supernatant was taken and the level of IL-8 [12] was measured 4-16 hours post-treatment using the commercial Human CXCL8/IL-8 DuoSet ELISA kit (R&D Systems, Minneapolis, Minn., USA). As a positive control dexamethasone (Sigma-Aldrich, St. Louis, Mo., USA) at 20, 200 and 400 μM final concentration was used.

HCT116 cells = assay: Cell viability, Alamar Blue (Resazurin assay), HCT116
Method: HCT116 cells were seeded (50,000 per well) in triplicate in 500 μL growing media and incubated for 24 hours at 37° C. in a humidified 5% CO2-95% air atmosphere. […] Following, the cells were incubated with Alamar Blue for 4 hours. Relative fluorescence at the excitation/emission of 544/590 nm was measured. Values were calculated as percentage of live cells relative to the non-treated (cells without TNF-α and treatments) control after reducing the auto fluorescence of Alamar Blue without cells (n=3). […] HCT116 cells were seeded (50,000 per well) in triplicate in 500 μL, growing media and incubated for 24 hours at 37° C. in a humidified 5% CO2-95% air atmosphere. […] Relative fluorescence at the excitation/emission of 544/590 nm was measured. Values were calculated as percentage of live cells relative to the non-treated (cells without TNF-α and treatments) control after reducing the auto fluorescence of Alamar Blue without cells (n=3). […]
Resazurin (R&D Systems) was used to check the cytotoxic effect of extracts. […] Supernatant (100 μL from each well) was transferred to a 96-well plate and the relative fluorescence at the excitation/emission of 544/590 nm was measured. The number of live cells was calculated with a linear standard concentrate curve built by seeding different concentrations of cells in 24-well plates treated with Resazurin. […]

HT29 cells = assay: Cell viability, Alamar Blue (Resazurin assay), HT29; details: CBD 16-252 μg/mL, relative to HCT116 and CaCO2
Method: as §1

[2] = test system: IL-8 levels in HT29 cells; assay: IL-8 ELISA in TNF-α-treated HT29 cells, incl. F7/THCA + CBD combinations (Bliss model); details: for dose response of IL-8 levels: HT29, after 4 hours of treatment, F7 5-80 μg/ml, CBD 5-80 μM, THC 12.5-75 μM
Method: as §2, §3
In order to examine if there is a synergy between CBD and F7, ELISA assay was used to measure the anti-inflammatory activity of the fractions on HCT116 cells. Cells were seeded into a 24-well plates at 50,000 cells per well in triplicate in normal growing media. After 24 hours of incubation at 37° C. in a humidified 5% CO2-95% air atmosphere, cells were treated with different concentration of F7 (5 μg/mL to 80 μg/mL) with and without CBD (30 μM) along with 300 ng/mL of TNF-α or with different concentration of CBD (5 μM to 120 μM) with and without F7 (30 μg/mL) along with 300 ng/mL of TNF-α for 4 hours. Following, the supernatant was taken and the levels of IL-8 were measured using the commercial Human CXCL8/IL-8 DuoSet ELISA kit (R&D Systems, Minneapolis, Minn., USA). Resazurin (R&D Systems) was used to check the cytotoxic effect of extracts.
Drug synergy was determined by Bliss independence drug interaction model which is defined by the following equation: Exy=Ex+Ey−(ExEy)
Where (Exy) is the additive effect of the drug x and y as predicted by their individual effects (Ex and Ey). For calculation purpose, in this paper, the drug's anti-cancer effect was defined as complementary to the obtained results (1−Exy). The observed combined percentage viability is then compared to the calculated value. If the observed value of Exy is greater than the calculated Exy value, the combination treatment is considered as worse than expected, which means antagonism effect. If the observed value is less than the calculated one, then the combination treatment is considered as better than expected, thus showing synergism effect. […]

[3] = test system: IL-8 levels in HCT116 cells; assay: IL-8 ELISA in TNF-α-treated HCT116 cells; details: for EC50: Homo sapiens, HCT-116, 16 h, read-out: EC50 (anti-inflammatory assay, 50% of activity)
Method: FIGS. 13A-C depict EC50 dose of fractions on HCT116 cells. (FIG. 13A) Fraction 7 (F7), (FIG. 13B) CBD and (FIG. 13C) THC. Dose-effect curves of F7, CBD or THC on IL-8 levels of HCT116 colon cancer cells. HCT116 cells were seeded (50,000 per well) in triplicate in 500 μL, growing media and incubated for 24 hours at 37° C. in a humidified 5% CO2-95% air atmosphere. Cells were treated with 50 ng/mL TNF-α and F7, CBD or THC for 16 hours. Levels of IL-8 were measured from the supernatant using a commercial kit. Values (ng/mL) were calculated relative to a TNF-α treated control. Non-treated are the cells without TNF-α and treatments. For dose response assays, data points were connected by non-linear regression lines of the sigmoidal dose-response relation. GraphPad Prism was employed to produce dose-response curve and EC50 doses.
as §2, §3
The involvement of the receptors (CB1, CB2 and GPR55) was examined by treating the cells with 20 μM of the CB1 receptor antagonist/inverse agonist Rimonabant (Abcam, Cambridge, Mass., USA), CB2 receptor antagonist/inverse agonist SR144528 (Abcam) and GPR55 antagonist/inverse agonist CID16020046 (Sigma-Aldrich, Buchs, Switzerland). […] Cell treatment with purified compounds was performed with CBD (Restek, Pa., USA) at different concentrations (as indicated in each experiment), THCA (THCA-A; Restek) at a final concentration of 0.2 mM and THC (Restek) at a final concentration of as indicated in each experiment mM to confirm the activity of each cannabinoid.
For dose response assays, data points were connected by non-linear regression lines of the sigmoidal dose-response relation. GraphPad Prism (version 6 for windows, GraphPad software Inc. San Diego, USA) was employed to produce dose-response curves and IC50 doses were calculated using nonlinear regression analysis.

[4] = test system: CB1 gene expression in HCT-116 cells; assay: CB1 gene expression (qPCR) in HCT-116 cells after TNF-α; details: HCT-116, overnight treatment with TNF-α vs non-treated; ratio to GAPDH, 2-ΔΔCT
Method: (§4) Cells were seeded into a 6-well plate at a concentration of 1,500,000 cell/mL per well. After 24 hours incubation at 37° C. in a humidified 5% CO2-95% air atmosphere, cells were treated with TNF-α (final concentration of 1 ng/mL) and incubated overnight under the same conditions. Non-treated cells or cells treated only with TNF-α served as negative and positive controls, respectively. […] The next day, cells were harvested and total RNA was extracted using TRI reagent (Sigma-Aldrich) according to the manufacturer's protocol. For biopsies, all treatments were added overnight, after which the biopsies were stored at −20° C. in RNA Save solution (Biological Industries, Beit Haemek, Israel). RNA was extracted from frozen biopsies. Tissue samples were homogenized with an appropriate homogenizer in TRI reagent, as done for the cells. RNA (50 ng for biopsies: four UC patients and one CD patient) or 2.5 μg (for cells) was reverse-transcribed in a total volume of 20 μL using Maxima reverse transcriptase (Thermo Scientific, Boston, Mass., USA) according to the manufacturer's protocol. […] The expression of each target gene was normalized to the expression of GAPDH mRNA in the 2-ΔΔCt and is presented as the ratio of the target gene to GAPDH mRNA, expressed as 2-ΔCt, where Ct is the threshold cycle and ΔCt=Ct Target−Ct GAPDH. […]
(§5) Transcripts for CB1, CB2 and GPR55 were detected by qPCR in HCT116 cells.

[5] = test system: GPR55 gene expression in HCT-116 cells; assay: GPR55 gene expression (qPCR) in HCT-116 cells after TNF-α; details: HCT-116, overnight treatment with TNF-α vs non-treated; ratio to GAPDH, 2-ΔΔCT
Method: as §4, §5

[6] = test system: CB2 gene expression in HCT-116 cells; assay: CB2 gene expression (qPCR) in HCT-116 cells after TNF-α; details: HCT-116, overnight treatment with TNF-α vs non-treated; ratio to GAPDH, 2-ΔΔCT
Method: as §4, §5

C=C(C)[C@@H]1CCC(C)=C[C@H]1c1c(O)cc(CCCCC)cc1O [CBD, cannabidiol]
cell death (CaCO2 cells): dose-dependent cell death
anti-inflammatory activity (IL-8 level) [1]: active in reduction of IL-8 levels
cell death (HCT116 cells; CBD 16-252 μg/mL): dose-dependent cell death
cell death (HT29 cells): to a lesser extent
anti-inflammatory activity (IL-8 level) ([2]; HT29, 300 ng/mL TNF-α, 4 hours): active in reduction of IL-8 levels
dose response of IL-8 levels [2]: dose dependent reduction of IL-8 levels
IL-8 level at low concentrations ([2]; HT29, CBD below 20 μM): significant decrease in the IL-8 level
anti-inflammatory activity (IL-8) ([3]; HCT116, higher CBD concentrations): no anti-inflammatory activity
EC50 [3]: 30.4 µM
reduction in IL-8 levels ([3]; purified CBD 16-252 μg/mL, lower concentrations of CBD): reduction in IL-8 levels

Cc1ccc(-c2n[nH]c3c2C(c2cccc(O)c2)N(c2ccc(C(=O)O)cc2)C3=O)cc1 (stereo not drawn) [CID16020046]
IL-8 level in control ([3]; HCT116, antagonist 20 μM alone, without fractions): did not change IL-8 level

CCCCCc1cc(O)c2c(c1)OC(C)(C)[C@@H]1CCC(C)=C[C@@H]21 [THC, Δ9-tetrahydrocannabinol]
dose response of IL-8 levels [2]: dose dependent reduction of IL-8 levels
EC50 [3]: 102 µM

CCCCCc1cc2c(c(O)c1C(=O)O)C1C=C(C)CCC1C(C)(C)O2 (stereo not drawn) [THCA, Δ9-tetrahydrocannabinolic acid]
reduction of IL-8 levels ([3]; HCT116, 50 ng/mL TNF-α, 16 hours, 0.2 mM THCA, F7 diluted 280-fold to correspond to 0.2 mM THCA): significantly reduced IL-8 levels

SR144528
HCT116 cell proliferation (HCT116 cells; antagonist 20 μM): Significantly Increases HCT116 Cell Proliferation

TNF-α
Mean relative expression, CB1 [4]: 1.31
Mean relative expression, GPR55 [5]: 5.26
Mean relative expression, CB2 [6]: 5.84
